Experimental data taken from patent US9603922B2, “Modulation of NKT cell activity with antigen-loaded CD1d molecules” (VACCINEX, INC., priority 2007, dated 2017).

How the values were obtained:
human iNKT cells = test: Recognition by human iNKT cells (Table 3 comments); format: cell-based
iNKT cells [1] = test: Activity in vitro of ceramide-like glycolipid antigens (Table 3); format: cell-based, mouse; conditions: partly also in vivo
Protocol: The ability of a composition of the present invention to modulate an immune response can be readily determined by an in vitro assay. NKT cells for use in the assays include transformed NKT cell lines, or NKT cells which are isolated from a mammal, e.g., from a human or from a rodent such as a mouse. NKT cells can be isolated from a mammal by sorting cells that bind CD1d:α-GalCer tetramers.
The NKT cells employed in the assays are incubated under conditions suitable for proliferation. […] Serial dilutions of the compound can be added to the NKT cell culture medium.
(§1) Alternatively, rather than measurement of an expressed protein such as IL-4 or IFN-γ, modulation of NKT cell activation can be determined by changes in antigen-dependent T cell proliferation as measured by radiolabelling techniques as are recognized in the art. For example, a labeled (e.g., tritiated) nucleotide may be introduced to an assay culture medium. Incorporation of such a tagged nucleotide into DNA serves as a measure of T cell proliferation. […] A difference in the level of T cell proliferation following contact with the compound of the invention indicates the complex modulates activity of the T cells. For example, a decrease in NKT cell proliferation indicates the compound can suppress an immune response. An increase in NKT cell proliferation indicates the compound can stimulate an immune response.

mouse iNKT hybridoma = test: iNKT hybridoma stimulation assay (Table 3 comments); format: cell-based
Description: (§2) The ability of a composition of the present invention to modulate an immune response can be readily determined by an in vitro assay. NKT cells for use in the assays include transformed NKT cell lines, or NKT cells which are isolated from a mammal, e.g., from a human or from a rodent such as a mouse. NKT cells can be isolated from a mammal by sorting cells that bind CD1d:α-GalCer tetramers. See, for example, Benlagha et al., J Exp Med 191 (2000), pp. 1895-1903; Matsuda et al., J Exp Med 192 (2000), pp. 741-754; and Karadimitris et al., Proc Natl Acad Sci USA 98 (2001), pp. 3294-3298. A suitable assay to determine if a compound of the present invention is capable of modulating the activity of NKT cells is conducted by coculturing NKT cells and antigen presenting cells, adding the particular compound of interest to the culture medium that targets either the antigen presenting cells or the NKT cells directly, and measuring IL-4 or IFN-γ production. A significant increase or decrease in IL-4 or IFN-γ production over the same co-culture of cells in the absence of the compound of the invention or, preferably, in the presence of a compound of the invention with a non-targeting antibody indicates stimulation or inhibition of NKT cells.
The NKT cells employed in the assays are incubated under conditions suitable for proliferation. For example, an NKT cell hybridoma is suitably incubated at about 37° C. and 5% CO2 in complete culture medium (RPMI 1640 supplemented with 10% FBS, penicillin/streptomycin, L-glutamine and 5×10−5 M 2-mercaptoethanol). Serial dilutions of the compound can be added to the NKT cell culture medium.

iNKT cells [2] = test: Activity in vivo of ceramide-like glycolipid antigens, serum cytokine response (Table 3); conditions: serum cytokines
Description: In vivo assays also may be suitably employed to determine the ability of a composition of the invention to modulate the activity of NKT cells. For example, a composition of interest can be assayed for its ability to stimulate NKT cell activation or inhibit tumor growth. For example, a composition of the invention can be administered to a mammal such as a mouse, before or after challenge with a tumorigenic dose of transformed cells and the presence or size of growing tumors may be monitored.

SLE in NZB/W F1 mice = SLE in NZB/W F1 mice (Table 3 comments); format: in vivo, mouse
splenocytes = test: Splenocyte stimulation assay: proliferation and cytokine secretion (Table 3 comments); format: cell-based, mouse; conditions: for Comments: cytokine secretion (IL-4, IFNγ): cytokine secretion assays; for Comments: IL-4 relative to IFNγ: in vitro with splenocytes from NZB/W F1 mice
Description: as §2, §1

iNKT cells [3] = conditions: reported by others, in vivo IFNγ; cited from earlier work
[4] = tested on: mouse iNKT hybridoma / human CD1d + HeLa cells; test: Presentation to mouse iNKT hybridoma by human CD1d + HeLa cells (Table 3 comments); format: cell-based

SMILES: CCCCCCCCCCCCCCCCCCCCCCCC(=O)N[C@@H](COC1OC(CO)C(O)C(O)C1O)[C@H](O)[C@H](O)CCCCC (stereo partly drawn) [AH04-1, reference compound]
- Comments: recognition by human iNKT cells (human iNKT cells): seems NOT to be recognized by human iNKT cells
- Comments: iNKT agonist activity and cytokine profile in words (iNKT cells [1]): Weaker agonist than DB03-4 in our hands, and skewing of cytokine response not very impressive in most assays

SMILES: CCCCCCCCCCCCCCCCCCCCCCCC(=O)N[C@@H](COC1OC(CO)C(O)C(O)C1O)[C@H](O)CCCCCC (stereo partly drawn) [AH04-2]
- Comments: activity in iNKT hybridoma stimulation assay (mouse iNKT hybridoma): About a half log more potent than OCH in hybridoma stimulation assay

SMILES: CCCCCCCCCCCCCCCCCCCCCCCC(=O)N[C@@H](COC1OC(CO)C(O)C(O)C1O)[C@H](O)[C@H](O)CCCCCCCCCCCCCC (stereo partly drawn) [DB02-1]
- Comments: iNKT agonist activity and cytokine profile in words (iNKT cells [1]): Moderate to weak iNKT agonist in vitro and in vivo. Gives reasonably strong early IL-4 response, with reduced late IFNγ like DB03-4 or OCH.

SMILES: CCCC/C=C\C/C=C\CCCCCCCCCC(=O)N[C@@H](COC1OC(CO)C(O)C(O)C1O)[C@H](O)[C@H](O)CCCCCCCCCCCCCC (stereo partly drawn) [DB03-4]
- Comments: iNKT agonist activity and cytokine profile in words (iNKT cells [1]): “Type 2 Cytokine bias”: Strong inducer of iNKT cell IL-4 response, with blunted IFNγ and NK cell transactivation.

SMILES: CCCCC/C=C\C/C=C\C/C=C\C/C=C\CCCC(=O)N[C@@H](COC1OC(CO)C(O)C(O)C1O)[C@H](O)[C@H](O)CCCCCCCCCCCCCC (stereo partly drawn) [DB03-5]
- Comments: iNKT agonist activity and cytokine profile in words (iNKT cells [1]): “Type 2 Cytokine bias”: Strong inducer of iNKT cell IL-4 response, with blunted IFNγ and NK cell transactivation.

SMILES: CCCCCCCCCCCCCCCCCCCCCCCC(=O)N[C@@H](COC1OC(C)[C@@H](O)C(O)C1O)[C@H](O)[C@H](O)CCCCCCCCCCCCCC (stereo partly drawn) [DB03-8]
- Comments: in vivo cytokine response in words (iNKT cells [2]): No serum cytokine response in vivo
- Comments: iNKT agonist activity and cytokine profile in words (iNKT cells [1]): Weak iNKT agonist activity in vitro
- Comments: effect on SLE (SLE in NZB/W F1 mice): exacerbates SLE in NZB/W F1 mice

SMILES: CCCCCCCCCCCCCCCCCCCCCCCCCC(=O)N[C@@H](COC1OC(CO)C(O)C(O)C1O)[C@H](O)[C@H](O)CCCCCCCCCCCCCC (stereo partly drawn) [DB04-1 (KRN 7000), reference compound]
- Comments: iNKT agonist activity and cytokine profile in words (iNKT cells [1]): KRN7000. Strong agonist, mixed IL-4 and IFNγ response both in vivo and in vitro.

SMILES: CCCCC/C=C\C=C\CCCCCCCCC(=O)N[C@@H](COC1OC(CO)C(O)C(O)C1O)[C@H](O)[C@H](O)CCCCCCCCCCCCCC (stereo partly drawn) [DB05-9]
- Comments: iNKT agonist activity and cytokine profile in words (iNKT cells [1]): A potent Th2-biased agonist in vitro. Not tested yet in vivo (122206)

SMILES: CCCCCC/C=C\C=C/CCCCCCCC(=O)N[C@@H](COC1OC(CO)C(O)C(O)C1O)[C@H](O)[C@H](O)CCCCCCCCCCCCCC (stereo partly drawn) [DB05-11]
- Comments: iNKT agonist activity and cytokine profile in words (iNKT cells [1]): A potent Th2-biased analogue similar to DB05-9
- Comments: splenocyte proliferation (splenocytes): possibly more active in proliferation assay

SMILES: CCCCC\C=C/C=C/C=C/CCCCCCC(=O)N[C@@H](COC1OC(CO)C(O)C(O)C1O)[C@H](O)[C@H](O)CCCCCCCCCCCCCC (stereo partly drawn) [DB05-14]
- Comments: cytokine secretion (IL-4, IFNγ) (splenocytes): strong IL-4 secretion bias
- Comments: splenocyte proliferation (splenocytes): Very active in prolif

SMILES: CCCC/C=C/C=C/C=C\CCCCCCCC(=O)N[C@@H](COC1OC(CO)C(O)C(O)C1O)[C@H](O)[C@H](O)CCCCCCCCCCCCCC (stereo partly drawn) [DB05-17]
- Comments: cytokine secretion (IL-4, IFNγ) (splenocytes): moderately strong in cytokine secretion assays with moderate IL-4 predominance
- Comments: splenocyte proliferation (splenocytes): Weak in splenocyte prolif

SMILES: CCCCCCCCCCCCCCCCCCCCCCCCCC(=O)N[C@@H](COC1OC(C)[C@@H](O)C(O)C1O)[C@H](O)[C@H](O)CCCCCCCCCCCCCC (stereo partly drawn) [DB06-14]
- Comments: cytokine secretion (IL-4, IFNγ) (splenocytes): moderate IL-4 secretion at high concentration with weak IFNg
- Comments: activity in splenocyte stimulation assay (splenocytes; overall activity): Weakly active in splenocyte stimulation in vitro
- Comments: splenocyte proliferation (splenocytes): Minimal or no prolif

SMILES: CCCCC/C=C\C/C=C\CCCCCCCCCC(=O)N[C@@H](COC1OC(CO)C(O)C(O)C1O)[C@H](O)[C@H](O)CCCCCCCCCCCCCC (stereo partly drawn) [DB06-15]
- Comments: cytokine secretion (IL-4, IFNγ) (splenocytes): Weak IL-4 and even weaker INFg secretion
- Comments: splenocyte proliferation (splenocytes): Moderately active in splenocyte prolif

SMILES: CCCCCCCCCCCCCCCCCCCCCCCCCC(=O)N[C@@H](CCC1OC(CO)C(O)C(O)C1O)[C@H](O)[C@H](O)CCCCCCCCCCCCCC (stereo partly drawn) [RF03-1]
- Comments: reported agonist activity (iNKT cells [3]): C-glycoside of KRN7000. Reported to be strong agonist, with enhanced IFNγ production in vivo. May have slower kinetics of activation.

SMILES: CCCCCCCCCCCCCCCCCCCCCCCCCC(=O)N[C@@H](CSC1OC(CO)C(O)C(O)C1O)[C@H](O)[C@H](O)CCCCCCCCCCCCCC (stereo partly drawn) [SKRN 7000, reference compound]
- Comments: activity in iNKT hybridoma stimulation assay (mouse iNKT hybridoma): No agonist activity in iNKT hybridoma assay
- Comments: autoreactivity of iNKT cell hybridoma (mouse iNKT hybridoma): seemed to reduce autoreactivity of iNKT cell hybridoma

SMILES: CCCCCCCCCCCCCCCCCC(=O)N[C@@H](COC1OC(CO)C(O)C(O)C1O)[C@H](O)[C@H](O)CCCCCCCCCCCCCC (stereo partly drawn) [YTC03-15]
- Comments: activity when presented to mouse iNKT hybridoma by human CD1d + HeLa cells [4]: EXTREMELY active when presented to mouse iNKT hybridoma by human CD1d + HeLa cells

SMILES: CCCCCCCCCCCCCC[C@@H](O)[C@@H](O)[C@H](COC1OC(CO)C(O)C(O)C1O)NC(=O)C(c1ccccc1)c1ccccc1 (stereo partly drawn) [YTC03-17]
- Comments: in vivo cytokine response in words (iNKT cells [2]): no activity detectable in vivo (cytokine stimulation)
- Comments: iNKT agonist activity and cytokine profile in words (iNKT cells [1]): Very strong agonist in some in vitro studies

SMILES: CCCCCCCCCCCCCC[C@@H](O)[C@@H](O)[C@H](COC1OC(CO)C(O)C(O)C1O)NC(=O)Cc1ccc(OC)c(OC)c1 (stereo partly drawn) [YTC03-24]
- Comments: IL-4 relative to IFNγ (splenocytes): Possible enhanced IL-4 relative to IFNγ in vitro with splenocytes from NZB/W F1 mice

SMILES: CCCCCCCCCCCCCC[C@@H](O)[C@@H](O)[C@H](COC1OC(CO)C(O)C(O)C1O)NC(=O)Cc1ccc(F)cc1 (stereo partly drawn) [YTC03-30]
- Comments: activity when presented to mouse iNKT hybridoma by human CD1d + HeLa cells [4]: EXTREMELY active
- Comments: IL-4 relative to IFNγ (splenocytes): Possible enhanced IL-4 relative to IFNγ

SMILES: CCCCCCCCCCCCCC[C@@H](O)[C@@H](O)[C@H](COC1OC(CO)C(O)C(O)C1O)NC(=O)CCCCCCCCC (stereo partly drawn) [YTC03-34]
- Comments: in vivo cytokine response in words (iNKT cells [2]): Active in vivo with good IL-4 production assoc. with weak IFNgamma and weak IL-12 p70
- Comments: activity in iNKT hybridoma stimulation assay (mouse iNKT hybridoma): Moderate activity with mouse iNKT hybridoma
